Reference: ChEMBL document CHEMBL1201862, “PubChem BioAssay data set” (2004)
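Cultured in 96-well plates, cells were exposed to test compound for 48 hours across five concentrations. Abbreviation: GI50, concentration required for 50% inhibition of growth.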 Activity calls are given as the source filed them. No stated cut-off is given here; in the data, active = GI50 up to about 1.1 µM and inactive = higher.

Key:
Assay in all cases: NCI anticancer screen, dose series, 48 h
SN12C = tested on: SN12C
MOLT-4 = tested on: MOLT-4
IGROV-1 = tested on: IGROV-1
HT-29 = tested on: HT-29
XF498 = tested on: XF498
TK-10 = tested on: TK-10
COLO 205 = tested on: COLO 205
DMS-114 = tested on: DMS-114
OVCAR-8 = tested on: OVCAR-8
KM12 = tested on: KM12
786-0 = tested on: 786-0
UACC-257 = tested on: UACC-257
NCI-H522 = tested on: NCI-H522
A498 = tested on: A498
HOP-62 = tested on: HOP-62
DMS-273 = tested on: DMS-273
OVCAR-4 = tested on: OVCAR-4
Malme-3M = tested on: Malme-3M
ACHN = tested on: ACHN
UO-31 = tested on: UO-31
LXFL 529 = tested on: LXFL 529
SK-MEL-5 = tested on: SK-MEL-5
OVCAR-3 = tested on: OVCAR-3
SNB-75 = tested on: SNB-75
SNB-19 = tested on: SNB-19
SK-OV-3 = tested on: SK-OV-3
K562 = tested on: K562
U-251 = tested on: U-251
A549 = tested on: A549
NCI-H23 = tested on: NCI-H23
CCRF-CEM = tested on: CCRF-CEM
NCI-H460 = tested on: NCI-H460
SNB-78 = tested on: SNB-78
OVCAR-5 = tested on: OVCAR-5
UACC-62 = tested on: UACC-62
SF-295 = tested on: SF-295
DLD-1 = tested on: DLD-1
RXF 631 = tested on: RXF 631
SF-539 = tested on: SF-539
HCT-116 = tested on: HCT-116
CAKI-1 = tested on: CAKI-1
SK-MEL-2 = tested on: SK-MEL-2
M14 = tested on: M14
SR = tested on: SR
RXF 393 = tested on: RXF 393
HOP-92 = tested on: HOP-92
RPMI-8226 = tested on: RPMI-8226
SW-620 = tested on: SW-620
M19-MEL = tested on: M19-MEL
EKVX = tested on: EKVX
HCC 2998 = tested on: HCC 2998
NCI-H226 = tested on: NCI-H226
SF-268 = tested on: SF-268
SK-MEL-28 = tested on: SK-MEL-28
LOX IMVI = tested on: LOX IMVI
HOP-18 = tested on: HOP-18
KM-20L2 = tested on: KM-20L2
HL-60 = tested on: HL-60
HCT-15 = tested on: HCT-15

Measured: GI50

Nc1ncnc2c1ncn2COC/C=C/I
inactive: SN12C > 100 µM | MOLT-4 > 100 µM | IGROV-1 > 100 µM | HT-29 > 100 µM | XF498 > 100 µM | TK-10 > 100 µM | COLO 205 > 100 µM | DMS-114 > 100 µM | OVCAR-8 > 100 µM | KM12 > 100 µM | 786-0 > 100 µM | UACC-257 > 100 µM | NCI-H522 > 100 µM | A498 > 100 µM | HOP-62 > 100 µM | DMS-273 > 100 µM | OVCAR-4 > 100 µM | Malme-3M > 100 µM | ACHN > 100 µM | UO-31 > 100 µM | LXFL 529 > 100 µM | SK-MEL-5 > 100 µM | OVCAR-3 > 100 µM | SNB-75 36.7 µM | SNB-19 > 100 µM | SK-OV-3 > 100 µM | K562 > 100 µM | U-251 > 100 µM | A549 > 100 µM | NCI-H23 > 100 µM | CCRF-CEM 85.3 µM | NCI-H460 > 100 µM | SNB-78 > 100 µM | OVCAR-5 > 100 µM | UACC-62 > 100 µM | SF-295 > 100 µM | DLD-1 > 100 µM | RXF 631 > 100 µM | SF-539 > 100 µM | HCT-116 > 100 µM | CAKI-1 > 100 µM | SK-MEL-2 > 100 µM | M14 > 100 µM | SR > 100 µM | RXF 393 > 100 µM | HOP-92 > 100 µM | RPMI-8226 > 100 µM | SW-620 > 100 µM | M19-MEL > 100 µM | EKVX 77.6 µM | HCC 2998 > 100 µM | NCI-H226 > 100 µM | SF-268 > 100 µM | SK-MEL-28 > 100 µM | LOX IMVI > 100 µM | HOP-18 14 µM

C/C(=N\NS(=O)(=O)c1ccc(C)cc1)C(CN1CCOCC1)C(c1ccccc1)c1c(O)c2ccccc2oc1=O (stereo not given)
inactive: SN12C > 100 µM | KM-20L2 > 100 µM | IGROV-1 > 100 µM | HT-29 > 100 µM | XF498 > 100 µM | TK-10 > 100 µM | COLO 205 40.8 µM | OVCAR-8 > 100 µM | KM12 > 100 µM | 786-0 > 100 µM | UACC-257 > 100 µM | NCI-H522 59.8 µM | A498 > 100 µM | HOP-62 > 100 µM | OVCAR-4 > 100 µM | Malme-3M > 100 µM | ACHN > 100 µM | UO-31 72.3 µM | LXFL 529 > 100 µM | SK-MEL-5 > 100 µM | OVCAR-3 89.5 µM | SNB-75 > 100 µM | SNB-19 > 100 µM | SK-OV-3 > 100 µM | K562 53.2 µM | U-251 > 100 µM | A549 > 100 µM | NCI-H23 > 100 µM | HL-60 30.8 µM | CCRF-CEM 37.5 µM | NCI-H460 > 100 µM | SNB-78 > 100 µM | OVCAR-5 > 100 µM | UACC-62 > 100 µM | SF-295 83 µM | DLD-1 > 100 µM | RXF 631 > 100 µM | SF-539 > 100 µM | HCT-116 > 100 µM | CAKI-1 > 100 µM | SK-MEL-2 > 100 µM | M14 > 100 µM | SR 19.7 µM | RXF 393 68.2 µM | HOP-92 59.8 µM | RPMI-8226 35.2 µM | SW-620 30.6 µM | M19-MEL 99.5 µM | EKVX > 100 µM | NCI-H226 > 100 µM | SF-268 > 100 µM | LOX IMVI > 100 µM | HOP-18 > 100 µM
> 100 µM: HCT-15
